The text below walks through data of EP4389751A1, “HETEROCYCLIC COMPOUNDS AND USES THEREOF” (Kumquat Biosciences Inc., priority 2021, dated 2024).

Read-outs that look alike come from different tables or passages of the source. Where only a bound is given, the exact number is not on record here.

One test concerns GP2D cells. The experiment in a line: Cell proliferation assay (CellTiter-Glo), K-Ras G12D cells. In kind it is cell-based. The conditions noted are these: read-out: Inhibition of GP2D Cells (IC50). The method in brief:
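GP2D (K-Ras G12D) cells seeded in DMEM with 2 mM glutamine and 10% FBS, then dosed next day with a dilution series (e.g., 9-point 3-fold). Viability read by CellTiter-Glo luminescence after about 5 days. IC50 from four-parameter fit.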

The target of a further test is T1, K-Ras G12S (Homo sapiens, UniProt P01116, G12S).
T1 construct: made in house; host or cells: E. coli (e.g., BL21 (DE3))
The experiment in a line: HTRF assay of the K-Ras / SOS1 interaction. It is filed as biochemical. The conditions noted are these: IC50 (against K-Ras G12D) to IC50 (against K-Ras G12S). The method in brief: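 GST-K-Ras G12S with anti-GST-Eu donor and His-hSOS1 with anti-6His-XL665 acceptor in ~5 mM HEPES pH 7.4, ~150 mM NaCl, 1 mM DTT, 0.05% BSA, 0.0025% Igepal. Read after ~10 min or longer; IC50 from 665/620 nm ratio, duplicates at 10 µM down to 0.01 µM.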

T1 sequence (P01116 1-188 isoform P01116-2 G12S): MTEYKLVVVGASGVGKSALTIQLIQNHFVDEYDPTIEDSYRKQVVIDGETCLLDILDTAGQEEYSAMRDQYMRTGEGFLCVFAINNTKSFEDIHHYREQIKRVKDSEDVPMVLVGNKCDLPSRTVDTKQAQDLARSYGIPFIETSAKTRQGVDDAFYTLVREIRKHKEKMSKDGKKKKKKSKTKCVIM

Take `Nc1nc2c(-c3c(Cl)cc4c(NC5CC6(C5)CN(C(=O)n5cncn5)C6)nc(OC[C@@]56CCCN5C[C@H](F)C6)nc4c3F)ccc(F)c2s1` [Compound A211, (6-((7-(2-amino-7-fluorobenzo[d]thiazol-4-yl)-6-chloro-8-fluoro-2-(((2R,7aS)-2-fluorotetrahydro-1H-pyrrolizin-7a(5H)-yl)methoxy)quinazolin-4-yl)amino)-2-azaspiro[3.3]heptan-2-yl)(1H-1,2,4-triazol-1-yl)methanone]: the IC50 in the test with GP2D cells (GP2D cells (K-Ras G12D)) lay in the range of 1000 to 10000 nM. Further, the “Ratio of IC50 KRAS G12D vs. IC50 KRAS G12S” value (“Ratio” below) at K-Ras G12S was “A (A: indicates that the ratio of IC50 against KrasG12D vs. IC50 against KrasG12S is 1-fold or greater)”.

Consider `Nc1nc2c(-c3c(Cl)cc4c(NC5CCN(C(=O)n6ccc(F)n6)CC5)nc(OC[C@@]56CCCN5C[C@H](F)C6)nc4c3F)ccc(F)c2s1` [Compound A222, (4-((7-(2-amino-7-fluorobenzo[d]thiazol-4-yl)-6-chloro-8-fluoro-2-(((2R,7aS)-2-fluorotetrahydro-1H-pyrrolizin-7a(5H)-yl)methoxy)quinazolin-4-yl)amino)piperidin-1-yl)(3-fluoro-1H-pyrazol-1-yl)methanone], for which, in the test with GP2D cells (GP2D cells (K-Ras G12D)), the concentration for half-maximal inhibition (IC50) lay within 1000 to 10000 nM. Also, the “Ratio” value at K-Ras G12S is “A (A: indicates that the ratio of IC50 against KrasG12D vs. IC50 against KrasG12S is 1-fold or greater)”.

As for `C#Cc1c(F)ccc2cc(O)cc(-c3ncc4c(N5C6COCC5CN(C(=O)n5cc(C#N)cn5)C6)nc(OC[C@@]56CCCN5C[C@H](F)C6)nc4c3F)c12` [Compound A226, 1-(9-(7-(8-ethynyl-7-fluoro-3-hydroxynaphthalen-1-yl)-8-fluoro-2-(((2R,7aS)-2-fluorotetrahydro-1H-pyrrolizin-7a(5H)-yl)methoxy)pyrido[4,3-d]pyrimidin-4-yl)-3-oxa-7,9-diazabicyclo[3.3.1]nonane-7-carbonyl)-1H-pyrazole-4-carbonitrile], the IC50 with GP2D cells (GP2D cells (K-Ras G12D)) is 1000 to 10000 nM. Also, the “Ratio” value at K-Ras G12S is recorded as “A (A: indicates that the ratio of IC50 against KrasG12D vs. IC50 against KrasG12S is 1-fold or greater)”.

Take `N#Cc1c(N)sc2c(F)ccc(-c3c(Cl)cc4c(C5C[C@H]6CC[C@@H](C5)N6C(=O)n5cncn5)nc(OC[C@@]56CCCN5C[C@H](F)C6)nc4c3F)c12` (stereo partly drawn) [Compound A235, 4-(4-((1R,5S)-8-(1H-1,2,4-triazole-1-carbonyl)-8-azabicyclo[3.2.1]octan-3-yl)-6-chloro-8-fluoro-2-(((2R,7aS)-2-fluorotetrahydro-1H-pyrrolizin-7a(5H)-yl)methoxy)quinazolin-7-yl)-2-amino-7-fluorobenzo[b]thiophene-3-carbonitrile]: the IC50 in the test on GP2D cells (GP2D cells (K-Ras G12D)) is 1000 to 10000 nM. In addition, at K-Ras G12S, the “Ratio” value is “A (A: indicates that the ratio of IC50 against KrasG12D vs. IC50 against KrasG12S is 1-fold or greater)”.

For `N#Cc1nccn1C(=O)N1CC2CCC(C1)N2c1nc(OC[C@@]23CCCN2C[C@H](F)C3)nc2c(F)c(-c3ccc(F)c4sc(N)nc34)c(Cl)cc12` [Compound A238, 1-(8-(7-(2-amino-7-fluorobenzo[d]thiazol-4-yl)-6-chloro-8-fluoro-2-(((2R,7aS)-2-fluorotetrahydro-1H-pyrrolizin-7a(5H)-yl)methoxy)quinazolm-4-yl)-3,8-diazabicyclo[3.2. 1]octane-3-carbonyl)-1H-imidazole-2-carbonitrile], the IC50 with GP2D cells (GP2D cells (K-Ras G12D)) was ≤ 1000 nM. In addition, the “Ratio” value on K-Ras G12S is given as “A (A: indicates that the ratio of IC50 against KrasG12D vs. IC50 against KrasG12S is 1-fold or greater)”.

For the compound `Nc1nc2c(-c3c(Cl)cc4c(N5C6CCC5CN(C(=O)n5cncn5)C6)nc(OC[C@@]56CCCN5C[C@H](F)C6)nc4c3F)ccc(F)c2s1` [Compound A239, (8-(7-(2-amino-7-fluorobenzo[d]thiazol-4-yl)-6-chloro-8-fluoro-2-(((2R,7aS)-2-fluorotetrahydro-1H-pyrrolizin-7a(5H)-yl)methoxy)quinazolm-4-yl)-3,8-diazabicyclo[3.2.1]octan-3-yl)(1H-1,2,4-triazol-1-yl)methanone], in the test on GP2D cells (GP2D cells (K-Ras G12D)), the 50% inhibitory concentration (IC50) is ≤ 1000 nM. Moreover, at K-Ras G12S, the “Ratio” value is recorded as “A (A: indicates that the ratio of IC50 against KrasG12D vs. IC50 against KrasG12S is 1-fold or greater)”.

For `C[C@@H]1CN(C(=O)n2cncn2)[C@@H](C)CN1c1nc(OC[C@@]23CCCN2C[C@H](F)C3)nc2c(F)c(-c3ccc(F)c4sc(N)nc34)c(Cl)cc12` [Compound A244, ((2S,5R)-4-(7-(2-amino-7-fluorobenzo[d]thiazol-4-yl)-6-chloro-8-fluoro-2-(((2R,7aS)-2-fluorotetrahydro-1H-pyrrolizin-7a(5H)-yl)methoxy)quinazolin-4-yl)-2,5-dimethylpiperazin-1-yl)(1H-1,2,4-triazol-1-yl)methanone], in the test with GP2D cells (GP2D cells (K-Ras G12D)), the IC50 lay within 1000 to 10000 nM. For the same compound, the “Ratio” value at K-Ras G12S is on record as “A (A: indicates that the ratio of IC50 against KrasG12D vs. IC50 against KrasG12S is 1-fold or greater)”.

For the compound `N#Cc1cnn(C(=O)N2CC3COCC(C2)N3c2nc(OC[C@@]34CCCN3C[C@H](F)C4)nc3c(F)c(-c4ccc(F)c5sc(N)c(C#N)c45)c(Cl)cc23)c1` [Compound A249, 1-(9-(7-(2-amino-3-cyano-7-fluorobenzo[b]thiophen-4-yl)-6-chloro-8-fluoro-2-(((2R,7aS)-2-fluorotetrahydro-1H-pyrrolizin-7a(5H)-yl)methoxy)quinazolin-4-yl)-3-oxa-7,9-diazabicyclo[3.3.1]nonane-7-carbonyl)-1H-pyrazole-4-carbonitrile], in the test on GP2D cells (GP2D cells (K-Ras G12D)), the IC50 is ≤ 1000 nM. In addition, the “Ratio” value on K-Ras G12S was “A (A: indicates that the ratio of IC50 against KrasG12D vs. IC50 against KrasG12S is 1-fold or greater)”.

For `Nc1nc2c(-c3c(Cl)cc4c(N5CCC6(CCN(C(=O)n7cncn7)CC6)CC5)nc(OC[C@@]56CCCN5C[C@H](F)C6)nc4c3F)ccc(F)c2s1` [Compound A250, (9-(7-(2-amino-7-fluorobenzo[d]thiazol-4-yl)-6-chloro-8-fluoro-2-(((2R,7aS)-2-fluorotetrahydro-1H-pyrrolizin-7a(5H)-yl)methoxy)quinazolin-4-yl)-3,9-diazaspiro[5.5]undecan-3-yl)(1H-1,2,4-triazol-1-yl)methanone], the IC50 in the test with GP2D cells (GP2D cells (K-Ras G12D)) is 1000 to 10000 nM. At K-Ras G12S, the “Ratio” value is reported as “A (A: indicates that the ratio of IC50 against KrasG12D vs. IC50 against KrasG12S is 1-fold or greater)”.

As for `Nc1nc2c(-c3c(Cl)cc4c(N5CC6(CN(C(=O)n7cncn7)C6)C5)nc(OC[C@@]56CCCN5C[C@H](F)C6)nc4c3F)ccc(F)c2s1` [Compound A264, (6-(7-(2-amino-7-fluorobenzo[d]thiazol-4-yl)-6-chloro-8-fluoro-2-(((2R,7aS)-2-fluorotetrahydro-1H-pyrrolizin-7a(5H)-yl)methoxy)quinazolm-4-yl)-2,6-diazaspiro[3.3]heptan-2-yl)(1H-1,2,4-triazol-1-yl)methanone], the IC50 in the test with GP2D cells (GP2D cells (K-Ras G12D)) fell in the range of 1000 to 10000 nM. In addition, at K-Ras G12S, the “Ratio” value is given as “A (A: indicates that the ratio of IC50 against KrasG12D vs. IC50 against KrasG12S is 1-fold or greater)”.

For `Nc1nc2c(-c3c(Cl)cc4c(N5C6COCC5CN(C(=O)n5cncn5)C6)nc(OC[C@@]56CCCN5C[C@H](F)C6)nc4c3F)ccc(F)c2s1` [Compound A270, (9-(7-(2-amino-7-fluorobenzo[d]thiazol-4-yl)-6-chloro-8-fluoro-2-(((2R,7aS)-2-fluorotetrahydro-1H-pyrrolizin-7a(5H)-yl)methoxy)quinazolin-4-yl)-3-oxa-7,9-diazabicyclo[3.3.1]nonan-7-yl)(1H-1,2,4-triazol-1-yl)methanone], in the test on GP2D cells (GP2d), the concentration for half-maximal inhibition (IC50) was ≤ 1000 nM. The “Ratio” value at K-Ras G12S was “A (A: indicates that the ratio of IC50 against KrasG12D vs. IC50 against KrasG12S is 1-fold or greater)”.

As to `Nc1nc2c(-c3c(Cl)cc4c(N5CC6CCC(C5)N6C(=O)Nc5ncccn5)nc(OC[C@@]56CCCN5C[C@H](F)C6)nc4c3F)ccc(F)c2s1` [Compound A274, 3-(7-(2-amino-7-fluorobenzo[d]thiazol-4-yl)-6-chloro-8-fluoro-2-(((2R,7aS)-2-fluorotetrahydro-1H-pyrrolizin-7a(5H)-yl)methoxy)quinazolin-4-yl)-N-(pyrimidin-2-yl)-3,8-diazabicyclo[3.2. 1]octane-8-carboxamide], the half-inhibitory concentration (IC50) in the test on GP2D cells (GP2D cells (K-Ras G12D)) is ≤ 1000 nM. The “Ratio” value on K-Ras G12S was “A (A: indicates that the ratio of IC50 against KrasG12D vs. IC50 against KrasG12S is 1-fold or greater)”.

`Nc1nc2c(-c3c(Cl)cc4c(N[C@@H]5C[C@H]6CC[C@@H](C5)N6C(=O)n5cncn5)nc(OC[C@@]56CCCN5C[C@H](F)C6)nc4c3F)ccc(F)c2s1` [Compound A286, ((1R,3s,5S)-3-((7-(2-amino-7-fluorobenzo[d]thiazol-4-yl)-6-chloro-8-fluoro-2-(((2R,7aS)-2-fluorotetrahydro-1H-pyrrolizin-7a(5H)-yl)methoxy)quinazolin-4-yl)amino)-8-azabicyclo[3.2.1]octan-8-yl)(1H-1,2,4-triazol-1-yl)methanone]: in the test on GP2D cells (GP2d), the IC50 was 1000 to 10000 nM. For the same compound, the “Ratio” value at K-Ras G12S is recorded as “A (A: indicates that the ratio of IC50 against KrasG12D vs. IC50 against KrasG12S is 1-fold or greater)”.

For the compound `Nc1nc2c(-c3c(Cl)cc4c(N5CCC56CCN(C(=O)n5cncn5)CC6)nc(OC[C@@]56CCCN5C[C@H](F)C6)nc4c3F)ccc(F)c2s1` [Compound A288, (1-(7-(2-amino-7-fluorobenzo[d]thiazol-4-yl)-6-chloro-8-fluoro-2-(((2R,7aS)-2-fluorotetrahydro-1H-pyrrolizin-7a(5H)-yl)methoxy)quinazolin-4-yl)-1,7-diazaspiro[3.5]nonan-7-yl)(1H-1,2,4-triazol-1-yl)methanone], in the test on GP2D cells (GP2D cells (K-Ras G12D)), the IC50 fell in the range of 1000 to 10000 nM. Further, the “Ratio” value on K-Ras G12S is listed as “A (A: indicates that the ratio of IC50 against KrasG12D vs. IC50 against KrasG12S is 1-fold or greater)”.
